Laboratory results reported in patent US20220144879A1, “FLUORESCENT PROBE FOR DETECTING CANCER” (The University of Tokyo, priority 2019, published 2022).

Assays:
[1] = tested on: intact glycosidase activities in normal breast, IDC (breast cancer), and FA (benign tumor) tissues; test: Screening of glycosidase-reactive fluorescent probes for detecting breast cancer and benignancy (fluorescence increase in clinical mammary gland specimens); set-up: species or system human; details: probe 50 μM in PBS, increase from 1 minute to 30 minutes after addition, 540 nm
Protocol: Using the 12 types of glycosidase-reactive fluorescent probes synthesized above (refer to FIG. 1), screening for the detection of breast cancer and benignancy was performed in the following procedure.
200 μL of a PBS solution of each fluorescent probe at a concentration of 50 μM was added to each well in which a clinical mammary gland specimen was placed, and fluorescence images at 1, 3, 5, 10, 20, and 30 minutes were acquired at 540 nm using a Maestro in vivo imaging system (PerkinElmer Inc.). Each fluorescence intensity value was quantified and compared by taking Regions Of Interest (ROIs) on Maestro software. Ex/Em=465−30 nm/515 nm long-pass was used as the filter setting.
The increase in fluorescence indicates increase after the lapse of 1 minute to 30 minutes since the addition of the fluorescent probe. Each dot represents, from left to right, increase in fluorescence in normal breast, IDC, DCIS, and FA tissues.

[2] = tested on: breast cancer and benign tumor tissues (clinical mammary gland specimen); test: Two-color imaging with HMRef-α-D-Man and GGT probe in combination (FIG. 9); set-up: species or system human; details: 50 μM each probe; 30 minutes after administration of both probes
Protocol: Two-color imaging was performed under the following conditions using the glycosidase-reactive fluorescent probe 5 (HMRef-α-D-Man) (concentration: 50 μM) and a GGT probe gGlu-2-OMeSiR600 (concentration: 50 μM) in combination.
200 μL of a PBS solution of the fluorescent probes at the above concentrations was added to each well in which a clinical mammary gland specimen was placed, and fluorescence images at 1, 3, 5, 10, 20, and 30 minutes were acquired at 540 nm and 640 nm using the Maestro in vivo imaging system (PerkinElmer Inc.). Each fluorescence intensity value was quantified and compared by taking Regions Of Interest (ROIs) on Maestro software. For the glycosidase-reactive fluorescent probe 5, Ex/Em=465-30 nm/515 nm long-pass was used as the filter setting. For the GGT probe, Ex/Em=570-40 nm/610 nm long-pass was used.
The exposure time (in milliseconds) of the fluorescence image is indicated at the bottom of each image.

SMILES	increase in fluorescence [1]	red fluorescence (640 nm) [2]
COc1ccccc1C1=C2C=CC(=N)C=C2[Si](C)(C)c2cc(NC(=O)CC[C@H](N)C(=O)O)ccc21 [compound 7]	increase in fluorescence in both the breast cancer and FA (benign tumor) tissues	–
COc1ccccc1C1=C2C=CC(=N)C=C2[Si](C)(C)c2cc(NC(=O)CC[C@H](N)C(=O)O)ccc21 [gGlu-2OME-SiR600, gGlu-2-OMeSiR600]	–	emitted red fluorescence in both breast cancer (malignant tumor) and the benign tumor
